According to US20090069370A1, “AZACYCLYLISOQUINOLINONE AND ISOINDOLINONE DERIVATIVES AS HISTAMINE-3 ANTAGONISTS” (Wyeth, priority 2007, published 2009):
Structures can show the parent of a compound that is named as a salt.

System: not given
Experiment: not given
Conditions: not given

melting point | Compound
255 to 256 °C | O=C(O)c1ccc(Oc2ccc3c(c2)CCN(C2CCN(C4CCC4)CC2)C3=O)cc1 [Example 2, 4-{[2-(1-cyclobutylpiperidin-4-yl)-1-oxo-1,2,3,4-tetrahydroiso-quinolin-6-yl]oxy}benzoic acid]
165 to 166 °C | COC(=O)c1ccc(COc2ccc3c(c2)CCN(C2CCN(C4CCC4)CC2)C3=O)cc1 [Example 13, methyl 4-({[2-(1-Cyclobutylpiperidin-4-yl)-1-oxo-1,2,3,4-tetrahydroisoquinolin-6-yl]oxy}methyl)benzoate]
269 to 270 °C | O=C(O)c1ccc(COc2ccc3c(c2)CCN(C2CCN(C4CCC4)CC2)C3=O)cc1 [Example 14, 4-({[2-(1-cyclobutylpiperidin-4-yl)-1-oxo-1,2,3,4-tetrahydroiso-quinolin-6-yl]oxy}methyl)benzoic acid]
170 to 173 °C | O=C(O)c1ccc(Oc2ccc3c(c2)CCN([C@@H]2CCN(C4CCCC4)C2)C3=O)cc1 [Example 36, (R)-4-(2-(1-cyclopentylpyrrolidin-3-yl)-1-oxo-1,2,3,4-tetrahydro-isoquinolin-6-yloxy)benzoic acid]

Target: T1, Human Histamine H3 Receptor (Homo sapiens, UniProt Q9Y5N1)
T1 construct: expressed in transfected cells; host or cells: HEK293T cells, stably transfected; membrane preparation
Experiment: Methyl histamine binding in human histamine H3 receptor cell line
Conditions: membranes of stably transfected HEK293T cells; radioligand 1 nM; Ki from IC50 by Cheng-Prusoff
Description: Evaluation of Methyl Histamine Binding in Human Histamine H3 Receptor Cell Line
The affinity of test compounds for the histamine 3 (H3) receptor is evaluated in the following manner. Stably transfected HEK293T cells are grown in DMEM containing 10% heat inactivated FBS and G-418 (500 ug/ml). Cells are scraped from the plate, transferred to centrifuge tubes, washed one time in PBS by centrifugation in a Sorvall RT7 Plus centrifuge (2000 rpm 10 minutes, 4° C.). The resulting pellets are stored at −80° C. until ready for use. Cells are re-suspended in buffer (50 mM Tris pH=7.5) and placed in a Dounce homogenizer, douncing ten times to homogenize cells. The homogenate is spun down by centrifugation (Sorvall RT7 Plus, 1800 rpm 10 minutes, 4° C.). The supernatant is placed in a Corex tube and spun down by centrifugation (Sorvall RC 5c Plus, 17,000 rpm 20 minutes, 4° C.). The pellet is resuspended in buffer (50 mM Tris, pH 7.5). Protein concentration (ug/ul) is determined using the Micro-BCA Protein Determination. The binding assay is set up in a 96 well microtiter plate in a total volume of 250 uL. Non-specific binding is determined in the presence of 10 uM clobenpropit. The final radioligand concentration is 1 nM. The test compound is serially diluted using the Beckman Biomek2000 to a final approximate range of 100 uM to 100 pM. Membranes are suspended in buffer, homogenized in 2 bursts of ten seconds using a Vitris mechanical homogenizer set at power setting 5. Ten μg of membranes are added to each well. Following a one hour incubation at 30° C., the reaction is terminated by the addition of ice cold buffer and rapid filtration with a Packard Filtermate Harvester through a GF/B filter pre-soaked with 1% PEI for one hour. The plate is dried for one hour at 37° C. and 60 μL Microscint Scintillant is added to each well. The CPM per well is measured on a Packard Top Count NXT. Ki values are determined in nM. The Ki is calculated from the IC50 (i.e. the concentration of competing ligand which displaces 50% of the specific binding of the radioligand). CPM values are expressed as % specific binding and plotted vs compound concentration. A curve is fitted using a four-parameter logistic fit and the IC50 value is determined. The Ki is calculated from this using the Cheng-Prusoff equation: […]=IC50/1+(L/Kd) where L=concentration of free radioligand used in the assay, and Kd is the dissociation constant of the radioligand for the receptor. L is determined for each experiment by counting an aliquot of the diluted radioligand (corresponding to that added to each well) and the Kd has previously been determined under identical conditions for this cell line/radioligand.

T1 sequence (Q9Y5N1 whole entry): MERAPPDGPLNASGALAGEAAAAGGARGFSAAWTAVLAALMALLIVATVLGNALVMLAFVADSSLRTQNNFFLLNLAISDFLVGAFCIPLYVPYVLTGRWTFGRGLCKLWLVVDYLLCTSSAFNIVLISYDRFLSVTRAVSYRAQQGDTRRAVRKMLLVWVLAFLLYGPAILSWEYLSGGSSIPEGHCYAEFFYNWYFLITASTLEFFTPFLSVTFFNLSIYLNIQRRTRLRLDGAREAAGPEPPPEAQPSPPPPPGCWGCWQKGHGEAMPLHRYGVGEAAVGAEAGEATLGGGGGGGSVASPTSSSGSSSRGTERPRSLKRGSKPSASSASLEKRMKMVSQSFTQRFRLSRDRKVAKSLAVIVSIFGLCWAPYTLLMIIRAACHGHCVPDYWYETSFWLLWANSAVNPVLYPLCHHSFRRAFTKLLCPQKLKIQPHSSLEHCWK

Ki | Compound
50.1 to 100 nM | O=C(O)c1ccc(Oc2ccc3c(c2)CCN(C2CCN(C4CCC4)CC2)C3=O)cc1 [Example 2, 4-{[2-(1-cyclobutylpiperidin-4-yl)-1-oxo-1,2,3,4-tetrahydroiso-quinolin-6-yl]oxy}benzoic acid]
10.1 to 25 nM | COC(=O)c1ccc(COc2ccc3c(c2)CCN(C2CCN(C4CCC4)CC2)C3=O)cc1 [Example 13, methyl 4-({[2-(1-Cyclobutylpiperidin-4-yl)-1-oxo-1,2,3,4-tetrahydroisoquinolin-6-yl]oxy}methyl)benzoate]
10.1 to 25 nM | O=C(O)c1ccc(COc2ccc3c(c2)CCN(C2CCN(C4CCC4)CC2)C3=O)cc1 [Example 14, 4-({[2-(1-cyclobutylpiperidin-4-yl)-1-oxo-1,2,3,4-tetrahydroiso-quinolin-6-yl]oxy}methyl)benzoic acid]
50.1 to 100 nM | O=C(O)c1ccc(Oc2ccc3c(c2)CCN([C@@H]2CCN(C4CCCC4)C2)C3=O)cc1 [Example 36, (R)-4-(2-(1-cyclopentylpyrrolidin-3-yl)-1-oxo-1,2,3,4-tetrahydro-isoquinolin-6-yloxy)benzoic acid]
10.1 to 25 nM | O=C(c1ccc(-c2ccc3c(c2)CCN([C@@H]2CCCN(C4CCC4)C2)C3=O)cc1)N1CCCC1 [Example 70, 2-[(3R)-1-cyclobutylpiperidin-3-yl]-6-[4-(pyrrolidin-1-ylcarbonyl)phenyl]-3,4-dihydroisoquinolin-1(2H)-one]
10.1 to 25 nM | O=C(c1ccc(-c2ccc3c(c2)CCN([C@@H]2CCCN(C4CCCC4)C2)C3=O)cc1)N1CCCC1 [Example 71, 2-[(3R)-1-cyclopentylpiperidin-3-yl]-6-[4-(pyrrolidin-1-ylcarbonyl)phenyl]-3,4-dihydroisoquinolin-1(2H)-one]
> 100 nM | CC(C)N1CCC[C@@H](N2CCc3cc(-c4ccc(C(=O)N5CCCC5)cc4)ccc3C2=O)C1 [Example 72, 2-[(3R)-1-isopropylpiperidin-3-yl]-6-[4-(pyrrolidin-1-ylcarbonyl)phenyl]-3,4-dihydroisoquinolin-1(2H)-one]
≤ 10 nM | C[C@H]1CCCN1C(=O)c1ccc(-c2ccc3c(c2)CCN([C@@H]2CCN(C4CCC4)C2)C3=O)c(F)c1 [Example 73, 2-[(3R)-1-cyclobutylpyrrolidin-3-yl]-6-(2-fluoro-4-{[(2S)-2-methylpyrrolidin-1-yl]carbonyl}phenyl)-3,4-dihydroisoquinolin-1(2H)-one]
≤ 10 nM | O=C(NC1CCC1)c1ccc(-c2ccc3c(c2)CCN([C@@H]2CCN(C4CCC4)C2)C3=O)c(F)c1 [Example 74, N-cyclobutyl-4-{2-[(3R)-1-cyclobutylpyrrolidin-3-yl]-1-oxo-1,2,3,4-tetrahydroisoquinolin-6-yl}-3-fluorobenzamide]
≤ 10 nM | CNC(=O)c1ccc(-c2ccc3c(c2)CCN([C@@H]2CCN(C4CCC4)C2)C3=O)c(F)c1 [Example 75, 4-{2-[(3R)-1-cyclobutylpyrrolidin-3-yl]-1-oxo-1,2,3,4-tetrahydroisoquinolin-6-yl}-3-fluoro-N-methylbenzamide]
≤ 10 nM | C[C@@H]1CCCN1C(=O)c1ccc(-c2ccc3c(c2)CCN([C@@H]2CCN(C4CCC4)C2)C3=O)c(F)c1 [Example 76, 2-[(3R)-1-cyclobutylpyrrolidin-3-yl]-6-(2-fluoro-4-{[(2R)-2-methylpyrrolidin-1-yl]carbonyl}phenyl)-3,4-dihydroisoquinolin-1(2H)-one]
≤ 10 nM | CCNC(=O)c1ccc(-c2ccc3c(c2)CCN([C@@H]2CCN(C4CCC4)C2)C3=O)c(F)c1 [Example 77, 4-{2-[(3R)-1-cyclobutylpyrrolidin-3-yl]-1-oxo-1,2,3,4-tetrahydroisoquinolin-6-yl}-N-ethyl-3-fluorobenzamide]
≤ 10 nM | CN(C)C(=O)c1ccc(-c2ccc3c(c2)CCN([C@@H]2CCN(C4CCC4)C2)C3=O)c(F)c1 [Example 78, 4-{2-[(3R)-1-cyclobutylpyrrolidin-3-yl]-1-oxo-1,2,3,4-tetrahydroisoquinolin-6-yl}-3-fluoro-N,N-dimethylbenzamide]
≤ 10 nM | O=C(c1ccc(-c2ccc3c(c2)CCN([C@@H]2CCN(C4CCC4)C2)C3=O)c(F)c1)N1CCCC1 [Example 79, 2-[(3R)-1-cyclobutylpyrrolidin-3-yl]-6-[2-fluoro-4-(pyrrolidin-1-ylcarbonyl)phenyl]-3,4-dihydroisoquinolin-1(2H)-one]
≤ 10 nM | O=C(NC1CCCC1)c1ccc(-c2ccc3c(c2)CCN([C@@H]2CCN(C4CCC4)C2)C3=O)c(F)c1 [Example 80, 4-{2-[(3R)-1-cyclobutylpyrrolidin-3-yl]-1-oxo-1,2,3,4-tetrahydroisoquinolin-6-yl}-N-cyclopentyl-3-fluorobenzamide]
≤ 10 nM | O=C(NC1CC1)c1ccc(-c2ccc3c(c2)CCN([C@@H]2CCN(C4CCC4)C2)C3=O)c(F)c1 [Example 81, 4-{2-[(3R)-1-cyclobutylpyrrolidin-3-yl]-1-oxo-1,2,3,4-tetrahydroisoquinolin-6-yl}-N-cyclopropyl-3-fluorobenzamide]
≤ 10 nM | CNC(=O)c1ccc(-c2ccc3c(c2)CCN([C@@H]2CCN(C(C)C)C2)C3=O)cc1 [Example 82]
≤ 10 nM | CCNC(=O)c1ccc(-c2ccc3c(c2)CCN([C@@H]2CCN(C(C)C)C2)C3=O)cc1 [Example 83, N-ethyl-4-{2-[(3R)-1-isopropylpyrrolidin-3-yl]-1-oxo-1,2,3,4-tetrahydroisoquinolin-6-yl}benzamide]
≤ 10 nM | CC(C)N1CC[C@@H](N2CCc3cc(-c4ccc(C(=O)N5CCCC5)cc4F)ccc3C2=O)C1 [Example 84, 6-[2-fluoro-4-(pyrrolidin-1-ylcarbonyl)phenyl]-2-[(3R)-1-isopropylpyrrolidin-3-yl]-3,4-dihydroisoquinolin-1(2H)-one]
≤ 10 nM | CNC(=O)c1ccc(-c2ccc3c(c2)CCN([C@@H]2CCN(C(C)C)C2)C3=O)c(F)c1 [Example 85, 3-fluoro-4-{2-[(3R)-1-isopropylpyrrolidin-3-yl]-1-oxo-1,2,3,4-tetrahydroisoquinolin-6-yl}-N-methylbenzamide]
≤ 10 nM | CCNC(=O)c1ccc(-c2ccc3c(c2)CCN([C@@H]2CCN(C(C)C)C2)C3=O)c(F)c1 [Example 86, N-ethyl-3-fluoro-4-{2-[(3R)-1-isopropylpyrrolidin-3-yl]-1-oxo-1,2,3,4-tetrahydroisoquinolin-6-yl}benzamide]
25.1 to 50 nM | O=C(c1ccc2c(c1)CCN([C@@H]1CCN(C3CCC3)C1)C2=O)N1CCCC1 [Example 87, 2-[(3R)-1-cyclobutylpyrrolidin-3-yl]-6-(pyrrolidin-1-ylcarbonyl)-3,4-dihydroisoquinolin-1(2H)-one hydrochloride]
10.1 to 25 nM | O=C(NC1CCCC1)c1ccc2c(c1)CCN([C@@H]1CCN(C3CCC3)C1)C2=O [Example 88, 2-[(3R)-1-cyclobutylpyrrolidin-3-yl]-N-cyclopentyl-1-oxo-1,2,3,4-tetrahydroisoquinoline-6-carboxamide hydrochloride]
≤ 10 nM | O=C1NCCc2cc(-c3ccc4c(c3)CCN([C@@H]3CCN(C5CCC5)C3)C4=O)ccc21 [Example 89, (R)-2-(1-cyclobutylpyrrolidin-3-yl)-3,3′,4,4′-tetrahydro-6,6′-biisoquinoline-1,1′(2H,2′H)-dione hydrochloride]
10.1 to 25 nM | CNC(=O)c1ccc(-c2ccc3c(c2)CN([C@@H]2CCN(C4CCC4)C2)C3=O)cc1 [Example 91, (R)-4-(2-(1-cyclobutylpyrrolidin-3-yl)-1-oxoisoindolin-5-yl)-N-methylbenzamide hydrochloride]
≤ 10 nM | O=C(c1ccc(-c2ccc3c(c2)CN([C@@H]2CCN(C4CCC4)C2)C3=O)cc1)N1CCCC1 [Example 92, (R)-2-(1-cyclobutylpyrrolidin-3-yl)-5-(4-(pyrrolidine-1-carbonyl)-phenyl)isoindolin-1-one hydrochloride]
